From US20090123419A1, “TREATMENT OF UTERINE CANCER AND OVARIAN CANCER WITH A PARP INHIBITOR ALONE OR IN COMBINATION WITH ANTI-TUMOR AGENTS” (BiPar Sciences, priority 2007, published 2009)

Columns and labels:
[1] = Stability of solutions and drug product; format: physicochemical
PARP = PARP activity in tissue samples from OVCAR-3 xenograft model; format: in vivo, SCID mice; details: after a single dose of BA; for effect on PARP activity in xenograft tissue samples: FIG. 2
From the text: (§1) The human OVCAR-3 (NIH-OVCAR-3) ovarian adenocarcinoma utilized in the study is maintained in athymic nude mice by serial engraftment. The human SW620 colon adenocarcinoma utilized in the study is maintained in nude mice by serial engraftment.
Whole blood is collected into EDTA vacutainers and human PBMCs are obtained by BD Vacutainer™ CPT™ Cell Preparation kit according to the manufacturer's instructions (BD Vacutainer™, REF 362760). Tumor samples are collected in a sterile container and placed immediately on ice. Within 30 minutes, tumor samples are snap-frozen in liquid nitrogen and stored at −80° C. until homogenized for analysis. The specimen is defrosted on ice and the wet weight is documented. The tissue is homogenized using isotonic buffer [7 mmol/L HEPES, 26 mmol/L KCl, 0.1 mmol/L dextran, 0.4 mmol/L EGTA, 0.5 mmol/L MgCl2, 45 mmol/L sucrose (pH 7.8)]. The homogenate is kept on ice throughout the process, and homogenization is done in 10-second bursts to prevent undue warming of the sample. Unless assayed on the day of homogenization, samples are refrozen to −80° C. and stored at this temperature until analyzed.
Cell preparations are defrosted rapidly at room temperature and washed twice in ice-cold PBS. […] Maximally stimulated PARP activity is measured in replicate samples of 20,000 cells in a reaction mixture containing […] NAD+ and 10 mg/mL oligonucleotide in a reaction buffer of 100 mmol/L Tris-HCl, 120 mmol/L MgCl2 (pH 7.8) in a final volume of […] as described previously (24) at 26° C. in an oscillating water bath. […] Purified PAR standards are loaded onto each membrane ([…] monomer equivalent) to generate a standard curve and allow quantification. […] Chemiluminesence detected during a 5-minute exposure is measured using a Fuji LAS3000 UV Illuminator (Raytek, Sheffield, United Kingdom) and digitized using the imaging software (Fuji LAS Image version 1.1, Raytek). The acquired image is analyzed using Aida Image Analyzer (version 3.28.001), and results are expressed in LAU/mm^2. […]

advanced solid tumors = assay: Phase 1b study of BA in combination with chemotherapy, clinical response via RECIST; format: in vivo, human
Method: (§2) The protocol has been amended to evaluate BA in combination with chemotherapy in specific tumor types.
BA plus cytotoxic chemotherapy (CTX)
(§3) BA Dosing: • Twice weekly; i.v. infusion • Standard 3+3 design for BA dose escalation • Dose levels studied: 2.0, 2.8, 4.0, 5.6, 8.0, and up to 11.2 mg/kg
Clinical response via RECIST every 2 cycles
Subjects— 18 years old with a refractory, advanced solid tumor, ECOG PS of <=2, and adequate hematological, renal, and hepatic function
No restriction on number of prior chemotherapeutic regimens

[2] = Clinical safety experience with BA to date; format: in vivo, human
[3] = in vivo
Method: as §2, §3
Safety, tolerability and MTD of each combination

[4] = tested on: human tumor cells including breast, colon, prostate, cervix, lung, and ovarian cancers; assay: In vitro activity of BA against cancer cells; format: cell-based
normal cells = assay: Toxic effects of BA in normal cells; format: cell-based
[5] = tested on: human OVCAR-3 (NIH-OVCAR-3) ovarian adenocarcinoma; assay: OVCAR-3 ovarian carcinoma xenograft efficacy study; format: in vivo, SCID mice
Method: as §1
Tumor weight may be estimated with the assumption that 1 mg is equivalent to 1 mm^3 of tumor volume. Tumor size, in mm^3, was calculated from: […]
Oral group receives BA p.o. (orally) twice daily from D1 p.m. until D68 a.m. (b.i.d. to end, i.e. twice daily dosing for the duration of the study). Alzet model osmotic pumps are implanted on Days 1, 15, and 29. The pumps are pre-warmed for 1 hour at 37° C., and then implanted subcutaneously (s.c.) in the left flanks of isofluoraneanesthetized mice. Each pump delivers a total dose of 25 mg/kg/week of BA over 14 days. BA is administrated intraperitoneally (i.p.) 15 mg/kg respectively twice weekly.
Each animal is euthanized when its neoplasm reached the predetermined endpoint size (1,000 mm^3).
where: T=median TTE for a treatment group, C=median TTE for control Group 1.

Compound: NC(=O)c1ccc(I)c([N+](=O)[O-])c1 [BA, 4-iodo-3-nitrobenzamide]
- stability of BA dosing solution, time to administration after preparation ([1]; ambient (room) temperature, diluted in 0.9% NS or D5W): ≤ 8 h
- permitted storage of BA drug product ([1]; at 25° C., 10 mg/mL in 25% hydroxypropylbetacyclodextrin/10 mM phosphate buffer, pH 7.4): ≤ 24 h
- effect on PARP activity in xenograft tissue samples (PARP): inhibitory effect
- effect on PARP activity in xenograft tissue samples (PARP; listed as 4-iodo-3-nitrobenzamide): inhibition of PARP
- duration of inhibitory effect on PARP activity (PARP; hours of observation): at least 8 hours
- subjects with stable disease for 2 cycles of treatment or more (advanced solid tumors; BA plus cytotoxic chemotherapy): Approximately 80%
- tumor response of a patient with advanced ovarian cancer (advanced solid tumors; after 4 cycles of BA in combination with topotecan, FIG. 4): partial response
- subjects demonstrating some clinical benefit (advanced solid tumors; of 66 subjects, BA plus cytotoxic chemotherapy): 53 subjects
- liver lesion (target lesion) size after treatment (advanced solid tumors; one ovarian cancer patient, 4 cycles BA with topotecan, from 4.6 cm): 1.5 cm
- CA 27-29 biomarker after treatment (advanced solid tumors; one ovarian cancer patient, 4 cycles BA with topotecan, from >300): < 200
- safety and tolerability [2]: safe and well-tolerated
- serious adverse events or grade 3 or 4 toxicities associated with BA [2]: no serious adverse events or grade 3 or 4 toxicities
- potentiation of known toxicities or increased frequency of expected toxicities of cytotoxic regimens [3]: no evidence
- proliferation of human tumor cells ([4]; in vitro, breast, colon, prostate, cervix, lung, and ovarian cancers): inhibits the proliferation
- activity against cancer cells in vitro ([4]; including drug resistant cell lines): active against a broad range of cancer cells
- toxic effects in normal cells (normal cells): without exerting toxic effects in normal cells
- tumor growth ([5]; OVCAR-3 xenograft in SCID mice): significantly inhibits tumor growth
- survival compared with the untreated control ([5]; different routes of administration, FIG. 3): improves survival
